Structures can show the parent of a compound that is named as a salt. Where two headings read alike, the source gives them in different places.
Key:
MT-4 cell line = assay: Cytotoxicity assay in vitro (MTT, virus omitted); assay type: cell-based
Procedure: (§1) To evaluate the EC50 of our compounds, various drug concentrations are incubated with the infected cell for six days and then the metabolic activity of the cells is monitored by the MTT assay. (See A. J. Japour et al, Antimicrobial Agents and Chemotherapy, 37, 1095-1101, 1993 and R. Pauwels et al. Journal of Virological Methods, 20, 309-321, 1988).
(§2) We use the laboratory viral strain NL4.3 as wild type virus and the cell line used is MT-4 which is a T-cell line highly sensitive to HIV-1. We also use some WT clinical strains. To address the resistance issue we assay the inhibitors with NL4.3 mutants which are designed to be resistant to specific commercially available inhibitors. The following reagents were obtained through the AIDS Research and Reference Reagent Program, division of AIDS, NIAID, NIH: pNL4.3 from Dr. Malcolm Martin; MT-4 cell line from Dr. Douglas Richman. Wild type (WT) clinical strains were obtained from “Laboratoire de santé publique du Québec”.
The same MTT assay is used to evaluate the CCIC50 of our compounds except that the virus is omitted.

[1] = system: HIV-1 laboratory viral strain NL4.3; assay: Anti-viral assay in vitro (MTT, infected MT-4 cells); assay type: cell-based; conditions: reduce virus replication in cell culture by 50%, six days
Procedure: as §1, §2

HIV-1 integrase = HIV-1 integrase (Human immunodeficiency virus type 1 group M subtype B, UniProt P12497); assay: HIV-1 integrase inhibition assay in vitro (radiolabeled duplex substrate, U5 end of HIV LTR); assay type: biochemical
Procedure: For the purpose of Table 1, the HIV-1 integrase inhibition assay was carried out following a known procedure (Burke, Jr. T. R. et al., J. Med. Chem. 38, 4171-4178 (1995)). A suitable radiolabeled duplex substrate corresponding to the U5 end of the HIV LTR was used.

[2] = Human immunodeficiency virus 1, MT4, 144 h
[3] = IC50, concentration of drug required to reduce the enzyme activity by 50%

| SMILES | CCIC50 (MT-4 cell line; human, 6 days) [µM] | EC50 [1, 2] [µM] | IC50 (HIV-1 integrase; [3]) [nM] | EC50 [1] [µM] | CCIC50 (MT-4 cell line; reduce cell survival by 50%, MTT assay, virus omitted) [µM] | EC50 ([1]; read-out: EC50) [µM] | IC50 (HIV-1 integrase; concentration of drug required to reduce the enzyme activity by 50%, read-out: IC50) [nM] |
| --- | --- | --- | --- | --- | --- | --- | --- |
| Cc1nc(N=Nc2cccc(S(=O)(=O)NC(C)(C)C)c2)c(COP(=O)(O)O)c(C=O)c1O [Example 9, 6-[3-(tert-Butylsulfamoyl)phenylazo]-pyridoxal-5-phosphate] | 57 | 15 | 3000 | – | – | – | – |
| Cc1nc(N=Nc2ccc(S(N)(=O)=O)cc2)c(COP(=O)(O)O)c(C=O)c1O [Example 2, 6-(4-Sulfamoylphenylazo)-pyridoxal-5-phosphate] | >100 | 5 | 250 | – | – | – | – |
| Cc1nc(N=Nc2ccc(S(=O)(=O)NC34CC5CC(CC(C5)C3)C4)cc2)c(COP(=O)(O)O)c(C=O)c1O [Example 3, 6-[4-(N-(1-Adamantyl)sulfamoyl)phenylazo]-pyridoxal-5-phosphate Hydrochloride] | 12 | 19.8 | 200 | – | – | – | – |
| Cc1nc(N=Nc2cccc(C(=O)NC34CC5CC(CC(C5)C3)C4)c2)c(COP(=O)(O)O)c(C=O)c1O [Example 4, 6-[3-(N-(1-Adamantyl)carbamoyl)phenylazo]-pyridoxal-5-phosphate Hydrochloride] | 13 | 50 | 400 | – | – | – | – |
| Cc1nc(N=Nc2cc(F)c(F)c(C(=O)O)c2F)c(COP(=O)(O)O)c(C=O)c1O [Example 41, 6-(3-Carboxy-2,4,5-trifluorophenylazo)-pyridoxal-5-phosphate] | >100 | 14 | 2000 | – | – | – | – |
| CCOC(OCC)c1c(O)c(C)nc(N=Nc2cc(C(=O)O)cc(C(=O)O)c2)c1COP(=O)(O)O [Example 51, 6-(3,5-Dicarboxyphenylazo)-pyridoxal-5-phosphate Diethylacetal] | >100 | 0.35 | 125 | – | – | – | – |
| Cc1nc(N=Nc2ccc(S(=O)(=O)Nc3nccs3)cc2)c(COP(=O)(O)O)c(C=O)c1O [Example 24, 6-[4-(2-Thiazolylsulfamoyl)phenylazo]-pyridoxal-5-phosphate] | >100 | 23 | 365 | – | – | – | – |
| Cc1nc(N=Nc2cccc(C(=O)Nc3cccnc3)c2)c(COP(=O)(O)O)c(C=O)c1O [Example 28, 6-[3-(3-Pyridylcarbamoyl)phenylazo]-pyridoxal-5-phosphate] | 50 | 6.25 | 3250 | – | – | – | – |
| Cc1nc(N=Nc2ccc(S(=O)(=O)Nc3ncccn3)cc2)c(COP(=O)(O)O)c(C=O)c1O [Example 25, 6-[4-(2-Pyrimidylsulfamoyl)phenylazo]-pyridoxal-5-phosphate] | >100 | 4.3 | 300 | – | – | – | – |
| Cc1nc(N=Nc2cc(C(=O)O)cc(C(=O)O)c2)c(COP(=O)(O)O)c(C=NO)c1O [Example 52, 6-(3,5-Dicarboxyphenylazo)-pyridoxal-5-phosphate Oxime] | 60 | 15 | 8750 | – | – | – | – |
| Cc1nc(N=Nc2cccc(C(=O)O)c2Cl)c(COP(=O)(O)O)c(C=O)c1O [Example 39, 6-(3-Carboxy-2-chlorophenylazo)-pyridoxal-5-phosphate] | >100 | 1.8 | 2600 | – | – | – | – |
| Cc1nc(N=Nc2cccc(S(=O)(=O)N3CCOCC3)c2)c(COP(=O)(O)O)c(C=O)c1O [Example 27, 6-[3-(Morpholinesulfamoyl)phenylazo]-pyridoxal-5-phosphate] | >100 | 27.5 | 1100 | – | – | – | – |
| Cc1nc(N=Nc2cccc(C(=O)O)c2C(=O)O)c(COP(=O)(O)O)c(C=O)c1O [Example 47, 6-(2,3-Dicarboxyphenylazo)-pyridoxal-5-phosphate] | 17 | 10 | 165 | – | – | – | – |
| Cc1nc(N=Nc2cc(C(=O)O)cc(C(=O)O)c2)c(COP(=O)(O)O)c(C=O)c1O [Example 50, 6-(3,5-Dicarboxyphenylazo)-pyridoxal-5-phosphate Penta-potassium Salt] | >100 | – | 470 | 5 | – | – | – |
| Cc1nc(N=Nc2cc(C(=O)O)ccc2Cl)c(COP(=O)(O)O)c(C=O)c1O [Example 40, 6-(5-Carboxy-2-chlorophenylazo)-pyridoxal-5-phosphate] | – | – | – | – | >100 | 17 | 3350 |
| Cc1nc(N=Nc2cccc(C(=O)Nc3cccc4cnccc34)c2)c(COP(=O)(O)O)c(C=O)c1O [Example 31, 6-[3-(5-Isoquinolylcarbamoyl)phenylazo]-pyridoxal-5-phosphate] | >100 | 15 | 3250 | – | – | – | – |
| Cc1nc(N=Nc2cc(C(=O)O)cc(C(=O)O)c2)c(COP(=O)(O)O)c(C=O)c1O [Example 49, 6-(3,5-Dicarboxyphenylazo)-pyridoxal-5-phosphate Methanesulfonic Acid Salt] | 12 | – | 500 | 0.275 | – | – | – |
| Cc1nc(N=Nc2cccc(C(=O)Nc3ccccn3)c2)c(COP(=O)(O)O)c(C=O)c1O [Example 29, 6-[3-(2-Pyridylcarbamoyl)phenylazo]-pyridoxal-5-phosphate] | >100 | 24 | 3850 | – | – | – | – |
